Eleven molecules from patent US8580825B2, “Oxadiazole inhibitors of leukotriene production” (Boehringer Ingelheim International GmbH, priority 2010, dated 2013) can be followed below.

Structures are written as SMILES.

The subject of experiment [1] is synthesis of LTB4 in human whole blood. Kind of experiment: human whole blood LTB4 production inhibition assay. The class given is cell-based. Conditions: calcimycin stimulated, read-out: hWB LTB4 IC50. In short, it runs like this:
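Steps: compound plus heparinized human whole blood, 15 min at 37° C; add calcimycin to 20 μM final; incubate another 30 min at 37° C; centrifuge at low speed and collect plasma; measure LTB4 with a homogeneous time-resolved fluorescence immunoassay.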

The target in experiment [2] is T1, recombinant human FLAP protein (Homo sapiens, UniProt P20292).
T1 construct: made in house; host or cells: Sf9 insect cells (100,000xg membrane fraction used)
T1 sequence (P20292 1-161): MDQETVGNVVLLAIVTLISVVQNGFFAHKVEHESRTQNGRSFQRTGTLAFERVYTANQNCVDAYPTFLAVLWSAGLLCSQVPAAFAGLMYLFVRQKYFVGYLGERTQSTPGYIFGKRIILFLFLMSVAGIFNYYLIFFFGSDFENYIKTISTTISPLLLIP
Kind of experiment: FLAP binding assay (Scintillation Proximity Assay, displacement of [125I]L-691,831). Conditions: for IC50: read-out: FLAP SPA IC50. An outline of the steps: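 Scintillation proximity displacement of [125I]L-691,831 (0.08 nM) from membranes of sf9 cells expressing recombinant human FLAP (5 μg/well) on WGA SPA beads, pH 7.5 Tris buffer. Plates shaken 2 h before counting. Non-specific binding defined with 10 μM unlabelled L-691,831.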
In general terms: SPA uses beads or plates that emit light when radiolabelled molecules are held near them.

Regarding `COCCn1cc(-c2nc([C@@](C)(c3ccc(-c4cnc(N)nc4)nc3)C3CC3)no2)cn1` [Example 75, 5-{5-[(1R)-1-cyclopropyl-1-{5-[1-(2-methoxyethyl)-1H-pyrazol-4-yl]-1,2,4-oxadiazol-3-yl}ethyl]pyridin-2-yl}pyrimidin-2-amine], the IC50 in experiment [1] was determined as 52 nM; in experiment [2], 32 nM.

`COCCn1cc(-c2nc([C@](C)(c3ccc(-c4cnc(N)nc4)nc3)C3CC3)no2)cn1` [Example 76, 5-{5-[(1S)-1-cyclopropyl-1-{5-[1-(2-methoxyethyl)-1H-pyrazol-4-yl]-1,2,4-oxadiazol-3-yl}ethyl]pyridin-2-yl}pyrimidin-2-amine]: the IC50 was 2000 nM in experiment [1] and 190 nM in experiment [2].

Regarding `CC(C)[C@](C)(c1ccc(-c2cnc(N)cn2)nc1)c1noc(-c2cnn(C)c2)n1` [Example 77, 5-(5-{(2R)-3-methyl-2-[5-(1-methyl-1H-pyrazol-4-yl)-1,2,4-oxadiazol-3-yl]butan-2-yl}pyridin-2-yl)pyrazin-2-amine], the IC50 in experiment [1] is 15 nM; in experiment [2], 0.14 nM.

`C[C@@](c1ccc(-c2cnc(N)nc2)nc1)(c1noc(-c2cnn(C3COC3)c2)n1)C1CC1` [Example 78, 5-{5-[(1R)-1-cyclopropyl-1-{5-[1-(oxetan-3-yl)-1H-pyrazol-4-yl]-1,2,4-oxadiazol-3-yl}ethyl]pyridin-2-yl}pyrimidin-2-amine]: the values for the IC50 in experiment [1] and in experiment [2] were 29 nM and 8 nM, respectively.

In the case of `C[C@](c1ccc(-c2cnc(N)nc2)nc1)(c1noc(-c2cnn(C3COC3)c2)n1)C1CC1` [Example 79, 5-{5-[(1S)-1-cyclopropyl-1-{5-[1-(oxetan-3-yl)-1H-pyrazol-4-yl]-1,2,4-oxadiazol-3-yl}ethyl]pyridin-2-yl}pyrimidin-2-amine], the IC50 in experiment [1] worked out at 650 nM; in experiment [2], 140 nM.

Regarding `CNC(=O)Cn1cc(-c2nc(C(C)(c3ccc(-c4cnc(N)nc4)nc3)C(C)C)no2)cn1` (stereo not shown) [Example 80, 2-[4-(3-{2-[6-(2-aminopyrimidin-5-yl)pyridin-3-yl]-3-methylbutan-2-yl}-1,2,4-oxadiazol-5-yl)-1H-pyrazol-1-yl]-N-methylacetamide], the half-maximal inhibitory concentration (IC50) in experiment [1] is 230 nM; in experiment [2], 5.6 nM.

Take `CN(C)C(=O)Cn1cc(-c2nc([C@@](C)(c3ccc(-c4cnc(N)nc4)nc3)C3CC3)no2)cn1` [Example 83, 2-[4-(3-{(1R)-1-[6-(2-aminopyrimidin-5-yl)pyridin-3-yl]-1-cyclopropylethyl}-1,2,4-oxadiazol-5-yl)-1H-pyrazol-1-yl]-N,N-dimethylacetamide]: the IC50 in experiment [1] was found to be 200 nM; in experiment [2], 76 nM.

On to `CN(C)C(=O)Cn1cc(-c2nc([C@](C)(c3ccc(-c4cnc(N)nc4)nc3)C3CC3)no2)cn1` [Example 84, 2-[4-(3-{(1S)-1-[6-(2-aminopyrimidin-5-yl)pyridin-3-yl]-1-cyclopropylethyl}-1,2,4-oxadiazol-5-yl)-1H-pyrazol-1-yl]-N,N-dimethylacetamide], for which the IC50 in experiment [1] stood at 2900 nM. The inhibition at 1 µM in experiment [2] (read-out: FLAP SPA inhibition at 1 uM) was found to be 45%.

With `CC(C)C(C)(c1ccc(-c2cnc(N)nc2)nc1)c1noc(-c2cn(CC(C)(C)O)cn2)n1` (stereo not shown) [Example 85, 1-[4-(3-{2-[6-(2-aminopyrimidin-5-yl)pyridin-3-yl]-3-methylbutan-2-yl}-1,2,4-oxadiazol-5-yl)-1H-imidazol-1-yl]-2-methylpropan-2-ol], the half-inhibitory concentration (IC50) in experiment [1] turned out to be 1900 nM; in experiment [2] it was 350 nM.

Turning to `Cn1cc(-c2nc(C(C)(C)c3ccc(-c4cnc(N)nc4)nc3)no2)cn1` [Example 86, 5-(5-{2-[5-(1-methyl-1H-pyrazol-4-yl)-1,2,4-oxadiazol-3-yl]propan-2-yl}pyridin-2-yl)pyrimidin-2-amine], the half-maximal inhibitory concentration (IC50) in experiment [1] was found to be 790 nM; in experiment [2], 140 nM.

For the molecule `CC(C)(c1ccc(-c2cnc(N)nc2)nc1)c1noc(-c2cn[nH]c2)n1` [Example 87, 5-(5-{2-[5-(1H-pyrazol-4-yl)-1,2,4-oxadiazol-3-yl]propan-2-yl}pyridin-2-yl)pyrimidin-2-amine], the IC50 in experiment [1] was above 5000 nM; in experiment [2], 670 nM.

By IC50 is commonly meant the concentration at which inhibition is half-maximal. As usually defined, the inhibition is the relative decrease from the control value, in per cent.
